From ChEMBL document CHEMBL5634128, “Development of chalcone-like derivatives and their biological and mechanistic investigations as novel influenza nuclear export inhibitors” (Eur J Med Chem, 2023)
Several values for one entry are separate records, joined by “and”; a condition that tells them apart may be missing. Equal entries are not always repeated. Activity calls are given as the source filed them. The calls are words filed in the database; no cut-off is given here.

Legend:
Influenza A virus [1] = test: Anti-influenza activity against Influenza A virus A/Goose/Guangdong/SH7/2013 (H5N1) infected in chicken embryo fibroblast assessed as inhibition of virus-induced cytopathic effect; assay type: functional
Fibroblast = test: (§1) Cytotoxicity against chicken embryo fibroblast cells assessed as reduction in cell growth at 50 uM by CCK-8 assay relative to control; assay type: toxicity, cell-based, Gallus gallus; parameters: Activity: scale not given: the % may be the effect or the level left; conditions: fibroblast, 50 µM
Influenza A virus [2] = test: Anti-influenza activity against Influenza A virus A/PR/8/34 infected in chicken embryo fibroblast assessed as reduction in viral growth; assay type: functional, organism-based; conditions: A/PR/8/34, Fibroblast
[3] = as §1; assay type: toxicity, cell-based, Gallus gallus; parameters: Activity: scale not given: the % may be the effect or the level left; conditions: chicken embryo fibroblast cells, read-out: Activity
Influenza A virus [4] = test: Anti-influenza activity against Influenza A virus H5N1 infected in chicken embryo fibroblast assessed as reduction in viral growth; assay type: functional, organism-based
Influenza A virus [5] = test: Anti-influenza activity against Influenza A virus H5N8 infected in chicken embryo fibroblast assessed as reduction in viral growth; assay type: functional, organism-based
[6] = Cytotoxicity against chicken embryo fibroblast cells assessed as reduction in cell growth by CCK-8; assay type: toxicity, cell-based, Gallus gallus
Influenza A virus [7] = test: Anti-influenza activity against Influenza A virus A/Brisbane/10/2007 infected in chicken embryo fibroblast assessed as reduction in viral growth; assay type: functional, organism-based; conditions: A/Brisbane/10/2007, Fibroblast
Influenza A virus [8] = test: Anti-influenza activity against Influenza A virus pdm09 infected in chicken embryo fibroblast assessed as reduction in viral growth; assay type: functional, organism-based
Influenza A virus [9] = test: Anti-influenza activity against Influenza A virus B/Yamagata infected in chicken embryo fibroblast assessed as reduction in viral growth; assay type: functional, organism-based
Influenza A virus [10] = test: Anti-influenza activity against Influenza A virus B/Victoria infected in chicken embryo fibroblast assessed as reduction in viral growth; assay type: functional, organism-based
Influenza A virus [11] = test: Anti-influenza activity against Influenza A virus A/Goose/Guangdong/SH7/2013 (H5N1) infected in chicken embryo fibroblast at MOI 1 assessed as distribution of NP in nucleus at 10 uM measured after 10 hr post infection by DAPI staining based assay; assay type: functional, organism-based
Influenza A virus [12] = test: Anti-influenza activity against Influenza A virus A/Goose/Guangdong/SH7/2013 (H5N1) infected in chicken embryo fibroblast at MOI 1 assessed as reduction in NP expression in nucleus at 10 uM measured after 10 hr post infection by Western blot analysis; assay type: functional, organism-based
Influenza A virus [13] = test: Anti-influenza activity against Influenza A virus A/Goose/Guangdong/SH7/2013 (H5N1) infected in chicken embryo fibroblast at MOI 1 assessed as reduction in NP expression in cytoplasm at 10 uM measured after 10 hr post infection by Western blot analysis; assay type: functional, organism-based
Influenza A virus [14] = test: Anti-influenza activity against Influenza A virus A/Goose/Guangdong/SH7/2013 (H5N1) infected in chicken embryo fibroblast at MOI 1 assessed as decrease in ratio of cytoplasmic to nuclear NP level at 10 uM measured after 10 hr post infection by Western blot analysis; assay type: functional, organism-based
Nucleoprotein = Nucleoprotein (Influenza A virus (strain A/Wilson-Smith/1933 H1N1), UniProt P15682); test: Binding affinity to influenza A virus Nucleoprotein assessed as dissociation constant by SPR analysis
Chain of Nucleoprotein (P15682 whole entry): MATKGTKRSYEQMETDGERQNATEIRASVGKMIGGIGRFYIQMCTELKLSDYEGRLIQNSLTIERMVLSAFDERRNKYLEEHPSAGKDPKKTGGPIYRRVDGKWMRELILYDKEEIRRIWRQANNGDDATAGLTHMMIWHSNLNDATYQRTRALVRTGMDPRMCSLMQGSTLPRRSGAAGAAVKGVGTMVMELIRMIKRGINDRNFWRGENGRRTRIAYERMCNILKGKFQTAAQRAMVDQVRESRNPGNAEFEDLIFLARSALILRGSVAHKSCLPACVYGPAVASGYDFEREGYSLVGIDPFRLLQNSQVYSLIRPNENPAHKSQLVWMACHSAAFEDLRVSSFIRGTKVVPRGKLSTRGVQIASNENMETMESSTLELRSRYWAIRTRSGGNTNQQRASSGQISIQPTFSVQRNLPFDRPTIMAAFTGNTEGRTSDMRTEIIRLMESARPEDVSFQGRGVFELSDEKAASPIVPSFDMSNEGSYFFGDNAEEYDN

[15] = Binding affinity to influenza A virus M1 assessed as dissociation constant by SPR analysis
[16] = Binding affinity to influenza A virus NS2 assessed as dissociation constant by SPR analysis
[17] = biological target: Exportin-1 (Homo sapiens) (UniProt O14980); test: Inhibition of CRM1-mediated nuclear export in human A549 cells assessed as distribution of GFP-tagged AID in cytoplasm at 20 uM administered for 12 hrs and measured after 24 hrs by fluorescence microscopy analysis; assay type: cell-based
Chain of Exportin-1 (Homo sapiens) (O14980 whole entry): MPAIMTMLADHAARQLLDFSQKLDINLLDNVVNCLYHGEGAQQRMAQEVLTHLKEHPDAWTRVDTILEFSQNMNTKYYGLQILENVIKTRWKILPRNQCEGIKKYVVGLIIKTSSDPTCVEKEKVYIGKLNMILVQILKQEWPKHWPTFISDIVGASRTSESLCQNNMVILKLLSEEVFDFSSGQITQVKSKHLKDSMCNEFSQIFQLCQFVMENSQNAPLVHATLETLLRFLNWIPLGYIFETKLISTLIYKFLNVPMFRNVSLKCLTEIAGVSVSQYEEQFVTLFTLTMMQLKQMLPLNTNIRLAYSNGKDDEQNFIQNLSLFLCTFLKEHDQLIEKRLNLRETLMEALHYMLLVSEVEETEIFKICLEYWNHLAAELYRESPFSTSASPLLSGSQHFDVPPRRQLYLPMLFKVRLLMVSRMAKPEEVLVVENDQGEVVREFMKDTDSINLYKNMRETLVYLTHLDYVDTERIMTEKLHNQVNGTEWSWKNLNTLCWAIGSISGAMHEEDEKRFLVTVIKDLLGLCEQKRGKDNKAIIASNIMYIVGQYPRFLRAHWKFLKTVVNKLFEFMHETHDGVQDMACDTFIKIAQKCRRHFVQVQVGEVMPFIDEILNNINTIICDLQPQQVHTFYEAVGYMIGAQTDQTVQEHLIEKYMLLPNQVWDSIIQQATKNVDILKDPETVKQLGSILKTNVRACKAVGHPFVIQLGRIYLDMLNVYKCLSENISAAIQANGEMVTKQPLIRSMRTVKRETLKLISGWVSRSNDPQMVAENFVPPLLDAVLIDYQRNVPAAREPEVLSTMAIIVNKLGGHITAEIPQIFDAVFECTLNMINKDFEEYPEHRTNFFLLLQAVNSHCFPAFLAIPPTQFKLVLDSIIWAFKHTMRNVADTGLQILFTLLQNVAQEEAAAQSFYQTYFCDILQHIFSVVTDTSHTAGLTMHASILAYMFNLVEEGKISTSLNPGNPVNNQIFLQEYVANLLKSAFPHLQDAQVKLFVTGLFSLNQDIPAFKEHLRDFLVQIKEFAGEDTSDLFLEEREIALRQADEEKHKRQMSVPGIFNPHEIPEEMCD

[18] = biological target: Exportin-1 (Homo sapiens) (UniProt O14980); test: Inhibition of CRM1-mediated nuclear export in human A549 cells assessed as distribution of GFP-tagged AID in nucleus at 20 uM administered for 12 hrs and measured after 24 hrs by fluorescence microscopy analysis; assay type: cell-based; conditions: time 36.0 hrs
[19] = biological target: Single-stranded DNA cytosine deaminase (Homo sapiens) (UniProt Q9GZX7); test: Induction of GFP-tagged AID degradation in human A549 cells at 20 uM; assay type: cell-based
Chain of Single-stranded DNA cytosine deaminase (Homo sapiens) (Q9GZX7 whole entry): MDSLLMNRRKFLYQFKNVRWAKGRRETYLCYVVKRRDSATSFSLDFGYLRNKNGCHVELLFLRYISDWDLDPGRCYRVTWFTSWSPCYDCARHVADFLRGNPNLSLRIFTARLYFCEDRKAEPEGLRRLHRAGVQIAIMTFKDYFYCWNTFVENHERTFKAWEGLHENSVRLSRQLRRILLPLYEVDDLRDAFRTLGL

With `COc1cccc(OC)c1/C=C/C(=O)/C=C/c1ccc(-c2ccncc2)cc1` the “inhibition (INH)” value (Influenza A virus [1]) was 26.05% and the Activity (Fibroblast) was 153.71%.
With `CCC(CC)O[C@@H]1C=C(C(=O)O)C[C@H](N)[C@H]1NC(C)=O` [OSELTAMIVIR CARBOXYLATE] the EC50 (Influenza A virus [2]) was 3.08 µM, the “inhibition (INH)” value (Influenza A virus [1]) was 98.5% and 97.3% and the percent cell viability relative to control at 50 µM [3] was 100%. For the same molecule, the Activity (Fibroblast) was 105.08%, the EC50 (Influenza A virus [4]) was 5.7 µM and the EC50 (Influenza A virus [5]) was 6.49 µM. For the same molecule, the CC50 [6] was greater than 100 µM, the EC50 (Influenza A virus [7]) was 1.08 µM and the EC50 (Influenza A virus [8]) was greater than 100 µM. It also gave an EC50 (Influenza A virus [9]) of 0.98 µM and an EC50 (Influenza A virus [10]) of 2.43 µM.
In the case of `CCOc1ccc(/C=C/C(=O)/C=C/c2c(OC)cccc2OC)cc1`, the EC50 (Influenza A virus [2]) is reported as 7.31 µM, the Activity (Influenza A virus [11]) is reported as “Active” and the “inhibition (INH)” value (Influenza A virus [1]) is reported as 51.33%. For the same molecule, the percent cell viability relative to control at 50 µM [3] was 117%, the EC50 (Influenza A virus [4]) was 14.9 µM and the EC50 (Influenza A virus [5]) was 9.6 µM. For the same molecule, the CC50 [6] was greater than 100 µM, the EC50 (Influenza A virus [7]) was 3.69 µM and the EC50 (Influenza A virus [8]) was 4.56 µM. The EC50 (Influenza A virus [9]) was 4.82 µM, the EC50 (Influenza A virus [10]) was 3.13 µM and the Activity (Influenza A virus [12]) was “Active”. The Activity (Influenza A virus [13]) was “Active”, the Activity (Influenza A virus [14]) was “Active” and the Kd (Nucleoprotein) was 0.239 µM. For the same molecule, the Kd [15] was “Not Active”, the Kd [16] was “Not Active” and the inhibition [17] was “inactive”. For the same molecule, the inhibition [18] was “inactive” and the Activity [19] was “Active”.
